Data from US20070232615A1, “Chemical Compounds” (priority 2004, published 2007).

Columns and labels:
Format in all cases: cell-based
[1] = target: T1, human CXCR4 (Homo sapiens, UniProt P61073); assay: Functional FLIPR assay (block of SDF-1 alpha induced [Ca2+]i change); conditions: HEK-293 cells with human CXCR4 and Gqi5 BacMam; antagonism of SDF-1 alpha; read-out: Functional assay (pIC50) (converted)
T1 construct: expressed in transfected cells; host or cells: HEK-293 cells (stably expressing human macrophage scavenger receptor class A type 1), transduced with human CXCR4 BacMam and Gqi5 BacMam baculoviruses
T1 sequence (P61073 whole entry): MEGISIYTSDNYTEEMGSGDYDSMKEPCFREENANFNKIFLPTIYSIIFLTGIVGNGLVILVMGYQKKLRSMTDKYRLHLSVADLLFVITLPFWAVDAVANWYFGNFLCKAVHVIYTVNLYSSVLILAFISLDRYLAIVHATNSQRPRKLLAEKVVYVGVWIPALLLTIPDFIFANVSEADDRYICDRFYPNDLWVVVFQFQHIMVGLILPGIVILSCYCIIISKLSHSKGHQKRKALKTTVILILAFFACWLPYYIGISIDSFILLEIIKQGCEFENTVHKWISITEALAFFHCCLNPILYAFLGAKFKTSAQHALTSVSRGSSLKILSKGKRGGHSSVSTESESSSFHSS
Protocol: Human embryonic kidney (HEK-293) cells were maintained and harvested as described above. Cells were plated in 96-well, black clear bottom, poly-lysine coated plates at a concentration of 40,000 cells per well in a final volume of 100 ul containing human CXCR4 BacMam (MOI=25) and Gqi5 BacMam (MOI=12.5). The cells were incubated at 37° C., 5% CO2, 95% humidity for 24 h to allow for protein expression.
After the required incubation time the cells were washed once with 50 ul of fresh serum-free DMEM/F12 media containing probenicid. 50 ul of dye solution was then added to the cells (Calcium Plus Assay Kit Dye; Molecular Devices) was dissolved in 200 ml of the above probenicid/BSA containing media and incubated for 1 h. Cell plates were transferred to a Fluorometric Imaging Plate Reader (FLIPR). Upon addition the effect of the compounds on the change in [Ca^2+]i was examined to determine if the compounds were agonists or antagonists (ability to block SDF-1 alpha activity) at the CXCR4 receptor. IC50 values are determined and pKb values are calculated using the Leff and Dougall equation: KB=IC50/((2+([agonist]/EC50ˆb)ˆ1/b−1) Where IC50 is that defined by the antagonist concentration-response curve [agonist] is the EC80 concentration of agonist used EC50 is that defined by the agonist concentration-response curve b is the slope of the agonist concentration-response curve.

[2] = tested on: HOS (hCXCR4/hCCR5/hCD4/pHIV-LTR-luciferase) cells and HEK-293 cells expressing HIV-1 gp160 (HXB2 strain); assay: Cell/cell fusion assay (luciferase); conditions: Homo sapiens, HEK293; 24 h, luciferase readout; read-out: Fusion assay (pIC50) (converted)
Source text: The complete coding sequences of HIV-1 tat (GenBank Accession No. X07861) and rev (GenBank Accession No. M34378) were cloned into pcDNA3.1 expression vectors containing G418 and hygromycin resistance genes, respectively. The complete coding sequence of the HIV-1 (HXB2 strain) gp160 envelope gene (nucleotide bases 6225-8795 of GenBank Accession No. K03455) was cloned into plasmid pCRII-TOPO. The three HIV genes were additionally inserted into the baculovirus shuttle vector, pFastBacMam1, under the transcriptional control of the CMV promoter. A construction of the pHIV-I LTR containing mutated NFkB sequences linked to the luciferase reporter gene was prepared by digesting pcDNA3.1, containing the G418 resistance gene, with Nru I and Bam HI to remove the CMV promoter. LTR-luc was then cloned into the Nru I/Bam HI sites of the plasmid vector. Plasmid preparations were performed after the plasmids were amplified in Escherichia coli strain DH5-alpha. The fidelity of the inserted sequences was confirmed by double-strand nucleotide sequencing using an ABI Prism Model 377 automated sequencer.
BacMam Baculovirus Generation
Recombinant BacMam baculoviruses were constructed from pFastBacMam shuttle plasmids by using the bacterial cell-based Bac-to-Bac system. Viruses were propagated in Sf9 (Spodoptera frugiperda) cells cultured in Hink's TNM-FH Insect media supplemented with 10% (v/v) fetal bovine serum and 0.1% (v/v) pluronic F-68 according to established protocols.
Human osteosarcoma (HOS) cells that naturally express human CXCR4 were transfected with human CCR5, human CD4 and the pHIV-LTR-luciferase plasmid using FuGENE 6 transfection reagent. Single cells were isolated and grown under selection condition in order to generate a stable HOS (hCXCR4/hCCR5/hCD4/pHIV-LTR-luciferase) clonal cell line. The cells were maintained in Dulbeccos modified Eagles media supplemented with 10% fetal calf serum (FCS), G418 (400 ug/ml), puromycin (1 ug/ml), mycophenolic acid (40 ug/ml), xanthine (250 ug/ml) and hypoxanthine (13.5 ug/ml) to maintain a selection pressure for cells expressing the LTR-luciferase, hCCR5 and hCD4, respectively. Human embryonic kidney (HEK-293) cells stably transfected to express the human macrophage scavenging receptor (Class A, type 1; GenBank Accession No. D90187), were maintained in DMEM/F-12 media (1:1) supplemented with 10% FCS and 1.5 ug/ml puromycin. The expression of this receptor by the HEK-293 cells enhances their ability to stick to tissue culture treated plasticware.
Transduction of HEK-293 cells
HEK-293 cells were harvested using enzyme-free cell dissociation buffer. The cells were resuspended in DMEM/F-12 media supplemented with 10% FCS and 1.5 ug/ml and counted. Tranductions were performed by direct addition of BacMam baculovirus containing insect cell media to cells. The cells were simultaneously transduced with BacMam baculovirus expressing HIV-1 tat, HIV-1 rev and HIV-1 gp160 (from the HXB2 HIV strain). Routinely an MOI of 10 of each virus was added to the media containing the cells. 2 mM butyric acid was also added to the cells at this stage to increase protein expression in transduced cells. The cells were subsequently mixed and seeded into a flask at 30 million cells per T225. The cells were incubated at 37° C., 5% CO2, 95% humidity for 24 h to allow for protein expression.
Cell/Cell Fusion Assay Format
HEK and HOS cells were harvested in DMEM/F-12 media containing 2% FCS and DMEM media containing 2% FCS, respectively, with no selection agents added. Compounds were plated as 1 ul spots in 100% DMSO on a 96-well CulturPlate plates. HOS cells (50 ul) were added first to the wells, followed immediately by the HEK cells (50 ul). The final concentration of each cell type was 20,000 cells per well. Following these additions, the cells were returned to a tissue culture incubator (37° C.; 5% CO2/95% air) for an additional 24 h.
Measurement of Luciferase Production […]

[3] = Compound cytotoxicity in the absence of virus (CellTiter-Glo); conditions: human; HOS cells, no virus; read-out: Cytotox (pIC50) (converted)
Protocol: (§1) Compounds were profiled against two HIV-1 viruses, the M-tropic (CCR5 utilizing) Ba-L strain and the T-tropic (CXCR4 utilizing) IIIB strain. Both viruses were propagated in human peripheral blood lymphocytes. Compounds were tested for there ability to block infection of the HOS cell line (expressing hCXCR4/hCCR5/hCD4/pHIV-LTR-luciferase) by either HIV-1 Ba-L or HIV-1 IIIB. Compound cytotoxicity was also examined in the absence of virus addition.
(§2) HOS cells (expressing hCXCR4/hCCR5/hCD4/pHIV-LTR-luciferase) were harvested and diluted in Dulbeccos modified Eagles media supplemented with 2% FCS and non-essential amino acid to a concentration of 60,000 cells/ml. The cells were plated into 96-well plates (100 ul per well) and the plates were placed in a tissue culture incubator (37° C.; 5% CO2/95% air) for a period of 24 h.
(§3) Subsequently, 50 ul of the desired drug solution (4 times the final concentration) was added to each well and the plates were returned to the tissue culture incubator (37° C.; 5% CO2/95% air) for 1 h. Following this incubation 50 ul of diluted virus was added to each well (approximately 2 million RLU per well of virus). The plates were returned to the tissue culture incubator (37° C.; 5% CO2/95% air) and were incubated for a further 96 h.
(§4) Following this incubation the endpoint for the virally infected cultures was quantified following addition of Steady-Glo Luciferase assay system reagent (Promega, Madison, Wis.). Cell viability or non-infected cultures was measured using a CellTiter-Glo luminescent cell viability assay system (Promega, Madison, Wis.). All luminescent readouts are performed on a Topcount luminescence detector (Packard, Meridien, Conn.).

[4] = tested on: HIV-1 IIIB; assay: HOS HIV-1 infectivity assay, IIIB strain; conditions: Human immunodeficiency virus 1; HOS cells, HIV-1 IIIB (T-tropic, CXCR4 utilizing), 96 h; read-out: HOS (3B)
Protocol: HOS HIV-1 Infectivity Assay
as §1
HOS HIV-1 Infectivity Assay Format
as §2, §3, §4

[5] = tested on: HIV; assay: HOS HIV infectivity assay (Table 2, strain not given); conditions: Human immunodeficiency virus 1, read-out: Activity Level
Summary of the method: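 HOS cells expressing hCXCR4/hCCR5/hCD4 and an HIV-LTR-luciferase reporter were preincubated with compound for 1 h in DMEM/2% FCS. They were then infected with HIV-1 Ba-L or IIIB (about 2 million RLU/well) for 96 h at 37° C. Infection was read by luciferase luminescence, and viability in uninfected cultures by CellTiter-Glo.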

CN1CCN(c2cccc3nc(CN(C)C4CCCc5cccnc54)cn23)CC1 (stereo not drawn) [Example 6, N-Methyl-N-{[5-(4-methyl-1-piperazinyl)imidazo[1,2-a]pyridin-2-yl]methyl}-5,6,7,8-tetrahydro-8-quinolinamine]
IC50 [1]: 7.94 nM
IC50 [2]: 3.31 nM
IC50 at 96 h [3]: > 100000 nM
IC50 [4]: 6.3 nM
IC50 [5]: < 100 nM

CCN1CCN(c2cccc3nc(CN(C)C4CCCc5cccnc54)cn23)CC1 (stereo not drawn) [Example 7, N-{[5-(4-Ethyl-1-piperazinyl)imidazo[1,2-a]pyridin-2-yl]methyl}-N-methyl-5,6,7,8-tetrahydro-8-quinolinamine]
IC50 [1]: 6.92 nM
IC50 [2]: 11.2 nM
IC50 at 96 h [3]: > 100000 nM
IC50 [4]: 11 nM
IC50 [5]: < 100 nM

CC(C)N1CCN(c2cccc3nc(CN(C)C4CCCc5cccnc54)cn23)CC1 (stereo not drawn) [Example 8, N-Methyl-N-({5-[4-(1-methylethyl)-1-piperazinyl]imidazo[1,2-a]pyridin-2-yl}methyl)-5,6,7,8-tetrahydro-8-quinolinamine]
IC50 [1]: 9.77 nM
IC50 [2]: 22.4 nM
IC50 at 96 h [3]: > 100000 nM
IC50 [4]: 16 nM
IC50 [5]: < 100 nM

CN(Cc1cn2c(N3CCN(C(=O)OC(C)(C)C)CC3)cccc2n1)C1CCCc2cccnc21 (stereo not drawn) [Example 9, 1,1-Dimethylethyl 4-(2-{[methyl(5,6,7,8-tetrahydro-8-quinolinyl)amino]methyl}imidazo[1,2-a]pyridin-5-yl)-1-piperazinecarboxylate]
IC50 [1]: 363 nM
IC50 [2]: 912 nM
IC50 at 96 h [3]: > 100000 nM
IC50 [4]: 300 nM

CN(Cc1cn2c(N3CCNCC3)cccc2n1)C1CCCc2cccnc21 (stereo not drawn) [Example 10, N-Methyl-N-{[5-(1-piperazinyl)imidazo[1,2-a]pyridin-2-yl]methyl}-5,6,7,8-tetrahydro-8-quinolinamine]
IC50 [1]: 6.92 nM
IC50 [2]: 17.8 nM
IC50 at 96 h [3]: > 100000 nM
IC50 [4]: 20 nM
IC50 [5]: < 100 nM

CN(C)CCN(C)c1cccc2nc(CN(C)C3CCCc4cccnc43)cn12 (stereo not drawn) [Example 11, N,N,N′-Trimethyl-N′-(2-{[methyl(5,6,7,8-tetrahydro-8-quinolinyl)amino]methyl}imidazo[1,2-a]pyridin-5-yl)-1,2-ethanediamine]
IC50 [1]: 33.9 nM
IC50 [2]: 67.6 nM
IC50 at 96 h [3]: > 100000 nM
IC50 [4]: 32 nM
IC50 [5]: < 100 nM

CC1CN(c2cccc3nc(CN(C)C4CCCc5cccnc54)cn23)CC(C)N1 (stereo not drawn) [Example 12, N-{[5-(3,5-Dimethyl-1-piperazinyl)imidazo[1,2-a]pyridin-2-yl]methyl}-N-methyl-5,6,7,8-tetrahydro-8-quinolinamine]
IC50 [1]: 28.2 nM
IC50 [2]: 166 nM
IC50 at 96 h [3]: > 100000 nM
IC50 [4]: 87 nM
IC50 [5]: < 100 nM

CC1CN(c2cccc3nc(CN(C)C4CCCc5cccnc54)cn23)CC(C)N1C (stereo not drawn) [Example 13, N-Methyl-N-{[5-(3,4,5-trimethyl-1-piperazinyl)imidazo[1,2-a]pyridin-2-yl]methyl}-5,6,7,8-tetrahydro-8-quinolinamine]
IC50 [1]: 18.2 nM
IC50 [2]: 77.6 nM
IC50 at 96 h [3]: > 100000 nM
IC50 [4]: 62 nM
IC50 [5]: < 100 nM

CC(C)N(Cc1cn2c(N3CCN(C)CC3)cccc2n1)C1CCCc2cccnc21 (stereo not drawn) [Example 14, N-(1-Methylethyl)-N-{[5-(4-methyl-1-piperazinyl)imidazo[1,2-a]pyridin-2-yl]methyl}-5,6,7,8-tetrahydro-8-quinolinamine]
IC50 [1]: 2 nM
IC50 [2]: 21.9 nM
IC50 at 96 h [3]: > 100000 nM
IC50 [4]: 13 nM
IC50 [5]: < 100 nM

CC(C)N1CCN(c2cccc3nc(CN(C(C)C)C4CCCc5cccnc54)cn23)CC1 (stereo not drawn) [Example 15, N-(1-Methylethyl)-N-({5-[4-(1-methylethyl)-1-piperazinyl]imidazo[1,2-a]pyridin-2-yl}methyl)-5,6,7,8-tetrahydro-8-quinolinamine]
IC50 [1]: 3.63 nM
IC50 [2]: 79.4 nM
IC50 at 96 h [3]: > 100000 nM
IC50 [4]: 38 nM
IC50 [5]: < 100 nM

CN1CCN(c2cccc3nc(CN(CC(F)(F)F)C4CCCc5cccnc54)cn23)CC1 (stereo not drawn) [Example 16, N-{[5-(4-Methyl-1-piperazinyl)imidazo[1,2-a]pyridin-2-yl]methyl}-N-(2,2,2-trifluoroethyl)-5,6,7,8-tetrahydro-8-quinolinamine]
IC50 [1]: 4.37 nM
IC50 [2]: 417 nM
IC50 at 96 h [3]: > 100000 nM
IC50 [4]: 145 nM
IC50 [5]: 100 to 500 nM
